How the values were obtained:
[1] = tested on: Spodoptera frugiperda; test: Spodoptera frugiperda spray test (SPODFR); assay type: in vivo; details: application rate 500 g/ha; maize leaf discs; after 7 days
Description: Spodoptera frugiperda—Spray Test (SPODFR)
Solvent: 78.0 parts by weight of acetone • • 1.5 parts by weight of dimethylformamide
(§1) Emulsifier: alkylaryl polyglycol ether
To produce an appropriate active ingredient formulation, 1 part by weight of active ingredient is dissolved using the stated parts by weight of solvent and made up with water containing an emulsifier concentration of 1000 ppm until the desired concentration is attained. To produce further test concentrations, the preparation is diluted with emulsifier-containing water.
Leaf discs of maize (Zea mays) are sprayed with an active ingredient formulation of the desired concentration and, after drying, populated with caterpillars of the armyworm (Spodoptera frugiperda).
After 7 days, the efficacy in % is determined. 100% means that all the caterpillars have been killed; 0% means that no caterpillars have been killed.

[2] = tested on: Myzus persicae; test: Myzus persicae contact test (MYZUPE c); assay type: in vivo; details: 2.4 g/ha, 14 dat
Description: Myzus persicae—Contact Test (MYZUPE c)
(§2) Solvent: 7 parts by weight of dimethylformamide
Emulsifier: alkylaryl poly glycol ether
(§3) To produce an appropriate active ingredient formulation, 1 part by weight of active ingredient is dissolved using the stated parts by weight of solvent and made up with water containing an emulsifier concentration of 1000 ppm until the desired concentration is attained. To produce further test concentrations, the preparation is diluted with emulsifier-containing water. In the event that addition of ammonium salts or/and penetrants (rapeseed oil methyl ester) is required, these are each pipetted in a concentration of 1000 ppm after the finished formulation solution has been diluted.
One-leaved bell pepper plants (Capsicum annuum) heavily infested by the green peach aphid (Myzus persicae) are treated by spraying the underside of the leaf with the active ingredient formulation in the desired concentration.
(§4) After the desired time, the kill in % is determined. 100% means that all the aphids have been killed and 0% means that none of the aphids have been killed.

[3] = tested on: Lucilia cuprina; test: Lucilia cuprina test (LUCICU); assay type: in vivo; details: application rate 100 ppm; L1 larvae; after 2 days
Description: Lucilia cuprina Test (LUCICU) Solvent: dimethyl sulphoxide To produce an appropriate active ingredient formulation, 10 mg of active ingredient are mixed with 0.5 ml of dimethyl sulphoxide, and the concentrate is diluted with water to the desired concentration. About 20 L1 larvae of the Australian sheep blowfly (Lucilia cuprina) are transferred into a test vessel containing minced horsemeat and the active ingredient preparation of the desired concentration. After 2 days, the kill in % is determined. 100% means that all the larvae have been killed; 0% means that none of the larvae have been killed.

[4] = tested on: Aphis gossypii; test: Aphis gossypii translaminar test (APHIGO t); assay type: in vivo; details: 2.4 g/ha, 7 dat
Description: Aphis gossypii—Translaminar Test (APHIGO t)
as §2, §1, §3
One-leaved cotton plants (Gossypium hirsutum) heavily infested by the cotton aphid (Aphis gossypii) are treated by spraying the top side of the leaf with the active ingredient formulation in the desired concentration.
as §4

[5] = tested on: Phaedon cochleariae; test: Phaedon cochleariae spray test (PHAECO); assay type: in vivo; details: application rate 500 g/ha; larvae; after 7 days
Procedure, shortened: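 Chinese cabbage leaf discs sprayed with compound in acetone/dimethylformamide with alkylaryl polyglycol ether emulsifier in water, dried, then infested with mustard beetle larvae. Efficacy scored after 7 days as % larvae killed (100% = all dead, 0% = none).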

[6] = log P by HPLC on a reversed-phase column (C 18), EEC Directive 79/831 Annex V.A8; assay type: physicochemical; details: 55° C.
Procedure, shortened: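 Reversed-phase C18 HPLC at 55 °C, 10→95% acetonitrile linear gradient. log P (HCOOH) run at pH 2.7 with 0.1% formic acid; log P (neutral) at pH 7.8 with 0.001 M ammonium hydrogencarbonate. Calibrated by retention-time interpolation between unbranched C3–C16 alkan-2-ones of known log P.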

[7] = tested on: Musca domestica; test: Musca domestica test (MUSCDO); assay type: in vivo; details: application rate 20 ppm; adult houseflies; after 2 days
Description: Musca domestica Test (MUSCDO) Solvent: dimethyl sulphoxide To produce an appropriate active ingredient formulation, 10 mg of active ingredient are mixed with 0.5 ml of dimethyl sulphoxide, and the concentrate is diluted with water to the desired concentration. Vessels containing a sponge treated with sugar solution and the active ingredient formulation of the desired concentration are populated with 10 adult houseflies (Musca domestica). After 2 days, the kill in % is determined. 100% means that all of the flies have been killed; 0% means that none of the flies have been killed.

[8] = tested on: Ctenocephalides felis; test: Ctenocephalides felis in vitro contact test; assay type: in vivo; details: application rate 5 μg/cm^2; adult cat fleas; after 48 h
Description: Ctenocephalides felis—In Vitro Contact Test
For the coating of the test tubes, 9 mg of active ingredient are first dissolved in 1 ml of acetone p.a. and then diluted to the desired concentration with acetone p.a. 250 μl of the solution are distributed homogeneously on the inner walls and base of a 25 ml test tube by turning and rocking on an orbital shaker (rocking rotation at 30 rpm for 2 h). With 900 ppm active ingredient solution and internal surface 44.7 cm^2, given homogeneous distribution, an area-based dose of 5 μg/cm^2 is achieved.
After the solvent has evaporated off, the tubes are populated with 5-10 adult cat fleas (Ctenocephalides felis), sealed with a perforated plastic lid and incubated in a horizontal position at room temperature and ambient humidity. After 48 h, efficacy is determined. To this end, the test tubes are stood upright and the fleas are knocked to the base of the tube. Fleas which remain motionless at the base or move in an uncoordinated manner are considered to be dead or moribund.
100% efficacy means that all the fleas were dead or moribund. 0% efficacy means that no fleas were harmed.

[9] = tested on: Aphis gossypii; test: Aphis gossypii contact test (APHIGO c); assay type: in vivo; details: 2.4 g/ha, 7 dat
Description: Aphis gossypii—Contact Test (APHIGO c)
as §2, §1, §3
One-leaved cotton plants (Gossypium hirsutum) heavily infested by the cotton aphid (Aphis gossypii) are treated by spraying the underside of the leaf with the active ingredient formulation in the desired concentration.
as §4

[10] = tested on: Nilaparvata lugens; test: Nilaparvata lugens test (NILALU); assay type: in vivo; details: 4 ppm
Description: Nilaparvata lugens Test (NILALU)
as §2, §1, §3
Rice plants (Oryza sativa, var. Balilla) are treated by spraying with the active ingredient formulation in the desired concentration and then populated with L3 larvae of the brown planthopper (Nilaparvata lugens).
After the desired time, the feeding damage in % is determined. 100% means that no feeding damage is found; 0% means that the feeding damage to the treated plant corresponds to that of the untreated control.

LOGP_HCOOH ([6]; acidic range, pH 2.7, 0.1% aqueous formic acid/acetonitrile): 2.98
LOGP_NEUTRAL ([6]; neutral range, pH 7.8, 0.001 molar aqueous ammonium hydrogencarbonate/acetonitrile): 2.93
SMILES: CCS(=O)(=O)c1cc(C(F)(F)F)cnc1-c1nc2cc(C(F)(F)F)ncc2n1C [Example I-21]
efficacy [1]: 100%
% efficacy [2]: 85%
efficacy (kill) [3]: 100%
% efficacy [4]: 65%
efficacy [5]: 100%
efficacy (kill) [7]: 95%
efficacy [8]: 100%
% efficacy [9]: 98%
% efficacy ([10]; 21 dat): 90%
% efficacy ([10]; 28 dat): 100%

Reference: patent US11274097B2, “2-(het)aryl-substituted condensed bicyclic heterocycle derivatives as pest control agents” (BAYER CROPSCIENCE AKTIENGESELLSCHAFT, priority 2014, dated 2022)
